Reference: patent US5627143A, “Wellbore fluid” (Dowell Schlumberger Incorporated, priority 1993, dated 1997)
Like-named read-outs stand apart in the source and are kept apart here.

Experiments:
Assay type in all cases: physicochemical
[1] = Kinematic viscosity (KV) of base oils
Excerpt: KV: The kinematic viscosity of an oil in centistokes.
(§1) Some properties of alk-1-enes of carbon number between 12 and 20 are shown in Table 1 (which appears at the end of this description) and compared with an ester oil, a linear alkyl benzene, and a polyalphaolefin.

Pour point of base oils = assay: Pour point of base oils
Excerpt: as §1

Flash point of base oils = assay: Flash point of base oils
Excerpt: as §1

[2] = Example 5: visible fluorescence under ultraviolet illumination
Excerpt: A sample of C14-16 linear alphaolefin was placed under ultraviolet illumination and its visible fluorescence noted. The fluorescence was compared to that of some other known base oils.

Row | SMILES | KV at 40° C. ([1]; 40° C.) [Cst] | Pour Point (Pour point of base oils) | KV at 40° C. [1] [Cst] | Flash Point (Flash point of base oils) [°C] | Fluorescence (colour) ([2]; continued lines of the cell) | Fluorescence (intensity) ([2]; first printed line of the cell)
1 | C=CCCCCCCCCCCCCCCCC [C18] | 3.59 | +18 °C | – | – | – | –
2 | C=CCCCCCCCCCC [C12] | – | -35 °C | 1.29 | 77 | – | –
3 | C=CCCCCCCCCCCCC [C14] | 1.85 | -13 °C | – | 107 | – | –
4 | CCCCCCCC/C=C\CCCCCCCC(=O)OCC(CC)CCCC (stereo not drawn) [2-ethylhexyl oleate] | – | – | – | – | white | Medium
5 | C=CCCCCCCCCCCCCCC [C16] | – | +4 °C | 2.62 | – | – | –
